{"source": "ChEMBL document CHEMBL1151639", "about": "“Antibacterial sesquiterpene aryl esters from Armillaria mellea” (J Nat Prod, 1985)", "format_in_all_cases": "functional, organism-based", "key": {"[1]": {"system": "Bacillus subtilis", "assay": "Antibacterial activity against Bacillus subtilis 5262 ATCC 6633"}, "[2]": {"system": "Staphylococcus aureus", "assay": "Antibacterial activity against Staphylococcus aureus 209P ATCC 53156"}, "[3]": {"system": "Pseudomonas aeruginosa", "assay": "Antibacterial activity against Pseudomonas aeruginosa"}, "[4]": {"system": "Escherichia coli", "assay": "Antibacterial activity against Escherichia coli"}}, "note": "Active and inactive are the calls of the source. No cut-off for these calls is given here.", "data": [{"smiles": "CO[C@]12C(C=O)=C[C@@H]3CC(C)(C)C[C@@H]3[C@@]1(C)C[C@H]2OC(=O)c1c(C)cc(O)cc1O", "values": [{"measurement": "Activity", "setting": "[1]", "value": "Active"}, {"measurement": "Activity", "setting": "[2]", "value": "Active"}, {"measurement": "Activity", "setting": "[3]", "value": "inactive"}, {"measurement": "Activity", "setting": "[4]", "value": "inactive"}]}]}
